Source: PMC10363032 (Cancer Chemotherapy and Pharmacology, 2023)

Experiment: plasma pharmacokinetics of probe cocktail substrates and metabolites with and without adavosertib in patients
Details: for Vd/F: Mean Vz/F, L (SD); for increase in Cmax on adavosertib co-administration / increase in exposure (AUC0–12) on adavosertib co-administration / increase in exposure (AUC0–t) on adavosertib co-administration: adavosertib 225 mg bid vs cocktail alone; for Point estimates of the geometric LS mean ratios S + AD/S, % (90% CI): AUC / Point estimates of the geometric LS mean ratios S + AD/S, % (90% CI): AUC0–t / Point estimates of the geometric LS mean ratios S + AD/S, % (90% CI): Cmax: substrate + adavosertib 225 mg bid vs substrate alone
Protocol: This sampling period was selected based on the half-lives of the probe substrates.
Plasma concentrations for caffeine, paraxanthine, omeprazole, 5-HO, midazolam, and 1ʹ-HM were all determined by high-performance liquid chromatography–tandem mass spectrometry (HPLC–MS/MS) at Labcorp Bioanalytical Laboratories (Madison, WI, USA).
Plasma concentrations of caffeine and paraxanthine collected with K2EDTA as anticoagulant were determined by HPLC–MS/MS detection simultaneously. The standard curves of caffeine and paraxanthine both ranged from 25.0 to 20,000 ng/mL. […] The lower limit of quantification (LLOQ) was 25.0 ng/mL for caffeine and paraxanthine.
Plasma concentrations of omeprazole and 5-HO were collected with lithium heparin as anticoagulant and were determined by HPLC–MS/MS detection simultaneously. […] The LLOQ was 20.0 nM for omeprazole and 5-HO.
Plasma concentrations of midazolam and 1ʹ-HM were collected with K2EDTA as anticoagulant and were determined by HPLC–MS/MS detection simultaneously. The standard curves of midazolam and 1ʹ-HM both ranged from 0.100 to 100 ng/mL. […] The LLOQ was 0.1 ng/mL for midazolam and 1ʹ-HM.
PK parameters were derived using non-compartmental methods with Phoenix® WinNonlin® version 6.4 (Certara, LP, Princeton, NJ, USA). All descriptive and inferential statistical computations were performed using SAS® version 9.1 (SAS Institute, Cary, NC, USA).

[1] = − AD (cocktail alone, period 1)

Compound	Mean CL/F, L/h (SD) (human, in vivo)	Mean t½ h (SD) (human, in vivo)	Median tmax, h (range) (human, in vivo)	Vd/F (human, in vivo) [L]	increase in Cmax on adavosertib co-administration [%]	increase in exposure (AUC0–12) on adavosertib co-administration [%]	increase in exposure (AUC0–t) on adavosertib co-administration [%]	Point estimates of the geometric LS mean ratios S + AD/S, % (90% CI): AUC	Point estimates of the geometric LS mean ratios S + AD/S, % (90% CI): AUC0–t	Point estimates of the geometric LS mean ratios S + AD/S, % (90% CI): Cmax	Median tmax, h (range) [1]	Mean MR (metabolic ratio in relation to parent compound), AUC (human, in vivo)	Mean MR (metabolic ratio in relation to parent compound), AUC0–t (human, in vivo)	Mean MR (metabolic ratio in relation to parent compound), Cmax (human, in vivo)	half-life (human, in vivo, Mean t½ h (SD)) [h]	other results
Cn1c(=O)c2c(ncn2C)n(C)c1=O [Caffeine, caffeine, reference compound]	5.7 (2.5) L/h	6.4 (3.8) h	0.5 (0.3–3.0) h	39.3	–	–	–	–	–	–	–	–	–	–	–	–
Cc1ncc2n1-c1ccc(Cl)cc1C(c1ccccc1F)=NC2 [Midazolam, midazolam, reference compound]	–	–	–	–	39	55	55	155.3 (138.6–173.9) %	155.2 (140.5–171.5) %	138.5 (118.9–161.3) %	0.5 (0.2–1.0) h	–	–	–	–	half-life (human, in vivo): 5.5 h; Vd/F (human, in vivo, + AD (adavosertib 225 mg bid, period 2)): 364 L; Vd/F (human, in vivo, − AD (cocktail alone, period 1)): 410 L; Mean CL/F, L/h (SD) [1]: 59.0 (34.3) L/h
Cn1c(=O)[nH]c2ncn(C)c2c1=O [Paraxanthine, paraxanthine]	–	–	8.0 (4.0–11.8) h	–	–	–	–	–	–	–	–	0.65	0.54	0.23	7	–
COc1ccc2[nH]c([S+]([O-])Cc3ncc(C)c(OC)c3C)nc2c1 (stereo not shown) [Omeprazole, omeprazole, reference compound]	13.3 (10.5) L/h	–	3.0 (0.7–6.0) h	28.3	–	–	–	–	–	–	–	–	–	–	2	–
COc1ccc2nc([S+]([O-])Cc3ncc(CO)c(OC)c3C)[nH]c2c1 (stereo not shown) [5-HO, 5-hydroxyomeprazole]	–	2.7 (1.7) h	3.0 (0.7–6.0) h	–	–	–	–	–	–	–	–	0.50	0.73	0.53	–	–
OCc1ncc2n1-c1ccc(Cl)cc1C(c1ccccc1F)=NC2 [1ʹ-HM, 1ʹ-hydroxymidazolam]	–	–	–	–	33	54	58	153.5 (131.0–179.8) %	158.2 (139.1–180.0) %	133.4 (106.5–167.1) %	0.5 (0.3–2.1) h	–	–	–	–	Mean MR (metabolic ratio in relation to parent compound), AUC (− AD): 0.41; Mean MR (metabolic ratio in relation to parent compound), AUC0–t (− AD): 0.43; Mean MR (metabolic ratio in relation to parent compound), Cmax (− AD): 0.47; Mean t½ h (SD) [1]: 7.2 (6.1) h
